Measurements reported in US9073903B2, “Imidazole-2,4-dione inhibitors of casein kinase 1” (Jasco Pharmaceuticals, LLC, priority 2010, dated 2015).
Read-outs that look alike come from different tables or passages of the source.

Legend:
[1] = tested on: Ovcar-3 cells; assay: Inhibition of Ovcar 3 cells (MTS cell proliferation); type: cell-based; details: for OD value 1 / OD value 2: 490 nm; for OD value 1 / OD value 2 / inhibition at 0.4 µM / inhibition at 0.8 µM / inhibition at 1.6 µM / inhibition at 3.2 µM / inhibition at 6.25 µM / inhibition at 12.5 µM / inhibition at 25 µM / inhibition at 50 µM / inhibition at 100 µM: 72 h; for inhibition at 0.4 µM / inhibition at 0.8 µM / inhibition at 1.6 µM / inhibition at 3.2 µM / inhibition at 6.25 µM / inhibition at 12.5 µM / inhibition at 25 µM / inhibition at 50 µM / inhibition at 100 µM / IC50: Homo sapiens, OVCAR-3
Method: Inhibition of Ovcar 3 Cells Cells: Ovcar-3 cells, ATCC Passage 4, Mycoplasma free. Medium: RPMI-1640 Medium (GIBCO Cat #22400121) supplemented with 10% fetal bovine serum (Hyclone Cat #SH30396.03). Seeding: 3,000 cells/well (100 uL) were seeded into 96-wells plate, incubated overnight at 37° C. in a humidified, 5% CO2 atmosphere. Treatment: Test compounds and Gemcitabine were prepared in a serial dilution (1:2) by culture medium. Fifty microliters (50 uL) of serially diluted solutions were added into each well. The final concentrations of the positive control and test compounds were shown in the graphs. The cells were incubated for 72 hours after addition of the test compounds. MTS: 15 uL of MTS solution (Promega Cat #G5430) was added into each well and incubated with cells for 4 hours at 37° C. in a humidified, 5% CO2 atmosphere. Measurement: Absorbance at 490 nm was measured using MD Spectramax Plus384 spectrophotometer. The regression curves were calculated by the GraphPad Prism 5 using “log(inhibitor) vs response—variable slope”.

[2] = tested on: PC-3 cells; assay: Inhibition of PC-3 cells (MTS cell proliferation); type: cell-based; details: for OD value 1 / OD value 2: 490 nm; for OD value 1 / OD value 2 / inhibition at 0.4 µM / inhibition at 0.8 µM / inhibition at 1.6 µM / inhibition at 3.2 µM / inhibition at 6.25 µM / inhibition at 12.5 µM / inhibition at 25 µM / inhibition at 50 µM / inhibition at 100 µM: 72 h; for inhibition at 0.4 µM / inhibition at 0.8 µM / inhibition at 1.6 µM / inhibition at 3.2 µM / inhibition at 6.25 µM / inhibition at 12.5 µM / inhibition at 25 µM / inhibition at 50 µM / inhibition at 100 µM / IC50: Homo sapiens, PC-3
Method: Inhibition of PC-3 Cells: Cells: PC-3 cells, ATCC Passage unknown, Mycoplasma free. Medium: DMEM Medium (GIBCO Cat #11995073) supplemented with 10% fetal bovine serum (Hyclone Cat #SH30396.03). Seeding: 3,000 cells/well (100 ul) into 96-wells plate, incubated overnight at 37° C. in a humidified, 5% CO2 atmosphere. Treatment: Test compounds and Gemcitabine were prepared in a serial dilution (1:2) by culture medium. Fifty microliters (50 uL) of serially diluted solutions were added into each well. The final concentrations of the positive control and test compounds were shown in the graphs. The cells were incubated for 72 hours after addition of the test compounds. MTS: 15 uL of MTS solution (Promega Cat #G5430) was added into each well and incubated with cells for 4 hours at 37° C. in a humidified, 5% CO2 atmosphere. Measurement: Absorbance at 490 nm was measured using MD Spectramax Plus384 spectrophotometer. The regression curves were calculated by the GraphPad Prism 5 using “log(inhibitor) vs response—variable slope”. Calculation: % of inhibition=(ODzero ctrl−OD compound)/ODzero ctrl*100.

IC50 ([1]; Table 18, read-out: OVCAR-3* 50% inhibition concentration): 11.2 µM | IC50 ([1]; Table 26, Ovcar3, 72 hours, read-out: 50% viability conc.): 11.2 µM | IC50 ([1]; Table 26, Ovcar3, 72 hours, read-out: IC50): 9.87 µM | IC50 ([2]; Table 18, read-out: PC-3* 50% inhibition concentration): 41.3 µM | IC50 ([2]; Table 26, 72 hours, read-out: 50% viability conc.): 41.3 µM
Compound: Nc1ccn([C@@H]2O[C@H](CO)[C@@H](O)C2(F)F)c(=O)n1 [Gemcitabine]
OD value 1 ([1]; 0.400 μM, replicate 1): 0.591 | OD value 2 ([1]; 0.400 μM, replicate 2): 0.575 | OD value 1 ([1]; 0.800 μM, replicate 1): 0.490 | OD value 2 ([1]; 0.800 μM, replicate 2): 0.460 | OD value 1 ([1]; 1.600 μM, replicate 1): 0.440 | OD value 2 ([1]; 1.600 μM, replicate 2): 0.453 | OD value 1 ([1]; 3.200 μM, replicate 1): 0.411 | OD value 2 ([1]; 3.200 μM, replicate 2): 0.432 | OD value 1 ([1]; 6.250 μM, replicate 1): 0.363 | OD value 2 ([1]; 6.250 μM, replicate 2): 0.388 | OD value 1 ([1]; 12.500 μM, replicate 1): 0.257 | OD value 2 ([1]; 12.500 μM, replicate 2): 0.234 | OD value 1 ([1]; 25.000 μM, replicate 1): 0.040 | OD value 2 ([1]; 25.000 μM, replicate 2): 0.009 | OD value 1 ([1]; 50.000 μM, replicate 1): 0.020 | OD value 2 ([1]; 50.000 μM, replicate 2): 0.010 | OD value 1 ([1]; 100.000 μM, replicate 1): 0.012 | OD value 2 ([1]; 100.000 μM, replicate 2): 0.011 | inhibition at 0.4 µM ([1]; 0.400 μM, replicate 1, read-out: % of inhibition 1): 1.5% | inhibition at 0.4 µM ([1]; 0.400 μM, replicate 2, read-out: % of inhibition 2): -4.93% | inhibition at 0.8 µM ([1]; 0.800 μM, replicate 1, read-out: % of inhibition 1): 18.3% | inhibition at 0.8 µM ([1]; 0.800 μM, replicate 2, read-out: % of inhibition 2): 16.1% | inhibition at 1.6 µM ([1]; 1.600 μM, replicate 1, read-out: % of inhibition 1): 26.6% | inhibition at 1.6 µM ([1]; 1.600 μM, replicate 2, read-out: % of inhibition 2): 17.4% | inhibition at 3.2 µM ([1]; 3.200 μM, replicate 1, read-out: % of inhibition 1): 31.5% | inhibition at 3.2 µM ([1]; 3.200 μM, replicate 2, read-out: % of inhibition 2): 21.2% | inhibition at 6.25 µM ([1]; 6.250 μM, replicate 1, read-out: % of inhibition 1): 39.5% | inhibition at 6.25 µM ([1]; 6.250 μM, replicate 2, read-out: % of inhibition 2): 29.2% | inhibition at 12.5 µM ([1]; 12.500 μM, replicate 1, read-out: % of inhibition 1): 57.2% | inhibition at 12.5 µM ([1]; 12.500 μM, replicate 2, read-out: % of inhibition 2): 57.3% | inhibition at 25 µM ([1]; 25.000 μM, replicate 1, read-out: % of inhibition 1): 93.4% | inhibition at 25 µM ([1]; 25.000 μM, replicate 2, read-out: % of inhibition 2): 98.4% | inhibition at 50 µM ([1]; 50.000 μM, replicate 1, read-out: % of inhibition 1): 96.7% | inhibition at 50 µM ([1]; 50.000 μM, replicate 2, read-out: % of inhibition 2): 98.1% | inhibition at 100 µM ([1]; 100.000 μM, replicate 1, read-out: % of inhibition 1): 98% | inhibition at 100 µM ([1]; 100.000 μM, replicate 2, read-out: % of inhibition 2): 98% | Maximal inhibition % ([1]; Table 26, Ovcar3, 72 hours): 98% | OD value 1 ([2]; 0.400 uM, replicate 1): 0.884 | OD value 2 ([2]; 0.400 uM, replicate 2): 0.866 | OD value 1 ([2]; 0.800 uM, replicate 1): 0.860 | OD value 2 ([2]; 0.800 uM, replicate 2): 0.803 | OD value 1 ([2]; 1.600 uM, replicate 1): 0.794 | OD value 2 ([2]; 1.600 uM, replicate 2): 0.778 | OD value 1 ([2]; 3.200 uM, replicate 1): 0.726 | OD value 2 ([2]; 3.200 uM, replicate 2): 0.756 | OD value 1 ([2]; 6.250 uM, replicate 1): 0.686 | OD value 2 ([2]; 6.250 uM, replicate 2): 0.692 | OD value 1 ([2]; 12.500 uM, replicate 1): 0.617 | OD value 2 ([2]; 12.500 uM, replicate 2): 0.628 | OD value 1 ([2]; 25.000 uM, replicate 1): 0.572 | OD value 2 ([2]; 25.000 uM, replicate 2): 0.583 | OD value 1 ([2]; 50.000 uM, replicate 1): 0.458 | OD value 2 ([2]; 50.000 uM, replicate 2): 0.488 | OD value 1 ([2]; 100.000 uM, replicate 1): 0.246 | OD value 2 ([2]; 100.000 uM, replicate 2): 0.214 | inhibition at 0.4 µM ([2]; 0.400 uM, replicate 1, read-out: % of inhibition 1): 2.1% | inhibition at 0.4 µM ([2]; 0.400 uM, replicate 2, read-out: % of inhibition 2): 1.92% | inhibition at 0.8 µM ([2]; 0.800 uM, replicate 1, read-out: % of inhibition 1): 4.8% | inhibition at 0.8 µM ([2]; 0.800 uM, replicate 2, read-out: % of inhibition 2): 9.05% | inhibition at 1.6 µM ([2]; 1.600 uM, replicate 1, read-out: % of inhibition 1): 12% | inhibition at 1.6 µM ([2]; 1.600 uM, replicate 2, read-out: % of inhibition 2): 11.9% | inhibition at 3.2 µM ([2]; 3.200 uM, replicate 1, read-out: % of inhibition 1): 19.7% | inhibition at 3.2 µM ([2]; 3.200 uM, replicate 2, read-out: % of inhibition 2): 14.3% | inhibition at 6.25 µM ([2]; 6.250 uM, replicate 1, read-out: % of inhibition 1): 24.1% | inhibition at 6.25 µM ([2]; 6.250 uM, replicate 2, read-out: % of inhibition 2): 21.7% | inhibition at 12.5 µM ([2]; 12.500 uM, replicate 1, read-out: % of inhibition 1): 31.7% | inhibition at 12.5 µM ([2]; 12.500 uM, replicate 2, read-out: % of inhibition 2): 28.9% | inhibition at 25 µM ([2]; 25.000 uM, replicate 1, read-out: % of inhibition 1): 36.7% | inhibition at 25 µM ([2]; 25.000 uM, replicate 2, read-out: % of inhibition 2): 34% | inhibition at 50 µM ([2]; 50.000 uM, replicate 1, read-out: % of inhibition 1): 49.3% | inhibition at 50 µM ([2]; 50.000 uM, replicate 2, read-out: % of inhibition 2): 44.5% | inhibition at 100 µM ([2]; 100.000 uM, replicate 1, read-out: % of inhibition 1): 72.8% | inhibition at 100 µM ([2]; 100.000 uM, replicate 2, read-out: % of inhibition 2): 75.8%
